From ChEMBL document CHEMBL4229426, “Synthesis, antitumor activity evaluation and mechanistic study of novel hederacolchiside A1 derivatives bearing an aryl triazole moiety” (Bioorg Med Chem, 2018)

Legend:
Assay type in all cases: functional, cell-based
PC-3 = experiment: Antiproliferative activity against human PC3 cells after 48 hrs by MTT assay; conditions: PC-3, 48 h
HT-29 = experiment: Antiproliferative activity against human HT-29 cells after 48 hrs by MTT assay; conditions: HT-29, 48 h
HepG2 = experiment: Antiproliferative activity against human HepG2 cells after 48 hrs by MTT assay; conditions: HepG2, 48 h
A549 = experiment: Antiproliferative activity against human A549 cells after 48 hrs by MTT assay; conditions: A549, 48 h
HL-60 = experiment: Antiproliferative activity against human HL60 cells after 48 hrs by MTT assay; conditions: HL-60, 48 h
U-937 = experiment: Antiproliferative activity against human U937 cells after 48 hrs by MTT assay; conditions: U-937, 48 h

Compound `CC(=O)c1ccccc1-n1cc(CNC(=O)[C@]23CCC(C)(C)C[C@H]2C2=CC[C@@H]4[C@@]5(C)CC[C@H](O[C@@H]6OC[C@H](O[C@@H]7O[C@H](CO)[C@@H](O)[C@H](O)[C@H]7O)[C@H](O)[C@H]6O[C@@H]6O[C@@H](C)[C@H](O)[C@@H](O)[C@H]6O)C(C)(C)[C@@H]5CC[C@@]4(C)[C@]2(C)CC3)nn1` has an IC50 (PC-3) of 49.6 µM, an IC50 (HT-29) of 35.6 µM and an IC50 (HepG2) of 12.4 µM. The IC50 (A549) was 10.5 µM, the IC50 (HL-60) was 14.3 µM and the IC50 (U-937) was 11.3 µM.
With `C[C@@H]1O[C@@H](O[C@H]2[C@H](O[C@H]3CC[C@]4(C)[C@H]5CC=C6[C@@H]7CC(C)(C)CC[C@]7(C(=O)NCc7cn(-c8ccccc8)nn7)CC[C@@]6(C)[C@]5(C)CC[C@H]4C3(C)C)OC[C@H](O[C@@H]3O[C@H](CO)[C@@H](O)[C@H](O)[C@H]3O)[C@@H]2O)[C@H](O)[C@H](O)[C@H]1O` the IC50 (PC-3) was 45 µM, the IC50 (HT-29) was 9.3 µM and the IC50 (HepG2) was 25.8 µM. It also gave an IC50 (A549) of 3.74 µM, an IC50 (HL-60) of 18.5 µM and an IC50 (U-937) of 8.79 µM.
`O=c1[nH]cc(F)c(=O)[nH]1` [FLUOROURACIL] showed an IC50 (PC-3) of 8.45 µM, an IC50 (HT-29) of 22.2 µM and an IC50 (HepG2) of 59.1 µM. The IC50 (A549) was 69.1 µM, the IC50 (HL-60) was 54.5 µM and the IC50 (U-937) was 56.3 µM.
In the case of `Cc1ccccc1-n1cc(CNC(=O)[C@]23CCC(C)(C)C[C@H]2C2=CC[C@@H]4[C@@]5(C)CC[C@H](O[C@@H]6OC[C@H](O[C@@H]7O[C@H](CO)[C@@H](O)[C@H](O)[C@H]7O)[C@H](O)[C@H]6O[C@@H]6O[C@@H](C)[C@H](O)[C@@H](O)[C@H]6O)C(C)(C)[C@@H]5CC[C@@]4(C)[C@]2(C)CC3)nn1`, the IC50 (PC-3) is reported as 5.03 µM, the IC50 (HT-29) is reported as 5.35 µM and the IC50 (HepG2) is reported as 1.51 µM. For the same compound, the IC50 (A549) was 4.13 µM, the IC50 (HL-60) was 3.84 µM and the IC50 (U-937) was 4.68 µM.
Compound `C[C@@H]1O[C@@H](O[C@H]2[C@H](O[C@H]3CC[C@]4(C)[C@H]5CC=C6[C@@H]7CC(C)(C)CC[C@]7(C(=O)NCc7cn(-c8ccc([N+](=O)[O-])cc8)nn7)CC[C@@]6(C)[C@]5(C)CC[C@H]4C3(C)C)OC[C@H](O[C@@H]3O[C@H](CO)[C@@H](O)[C@H](O)[C@H]3O)[C@@H]2O)[C@H](O)[C@H](O)[C@H]1O` has an IC50 (PC-3) of 5.56 µM, an IC50 (HT-29) of 3.04 µM and an IC50 (HepG2) of 26.6 µM. The IC50 (A549) was 3.98 µM, the IC50 (HL-60) was 21.1 µM and the IC50 (U-937) was 6.85 µM.
For `CC(=O)c1cccc(-n2cc(CNC(=O)[C@]34CCC(C)(C)C[C@H]3C3=CC[C@@H]5[C@@]6(C)CC[C@H](O[C@@H]7OC[C@H](O[C@@H]8O[C@H](CO)[C@@H](O)[C@H](O)[C@H]8O)[C@H](O)[C@H]7O[C@@H]7O[C@@H](C)[C@H](O)[C@@H](O)[C@H]7O)C(C)(C)[C@@H]6CC[C@@]5(C)[C@]3(C)CC4)nn2)c1`, the IC50 (PC-3) was 6.28 µM, the IC50 (HT-29) was 3.33 µM and the IC50 (HepG2) was 0.5 µM. For the same compound, the IC50 (A549) was 0.44 µM, the IC50 (HL-60) was 5.66 µM and the IC50 (U-937) was 0.81 µM.
Work on `C[C@@H]1O[C@@H](O[C@H]2[C@H](O[C@H]3CC[C@]4(C)[C@H]5CC=C6[C@@H]7CC(C)(C)CC[C@]7(C(=O)NCc7cn(-c8ccc(F)cc8)nn7)CC[C@@]6(C)[C@]5(C)CC[C@H]4C3(C)C)OC[C@H](O[C@@H]3O[C@H](CO)[C@@H](O)[C@H](O)[C@H]3O)[C@@H]2O)[C@H](O)[C@H](O)[C@H]1O` yielded an IC50 (PC-3) of 5.78 µM, an IC50 (HT-29) of 2.32 µM and an IC50 (HepG2) of 3.18 µM. For the same compound, the IC50 (A549) was 1.02 µM, the IC50 (HL-60) was 1.8 µM and the IC50 (U-937) was 0.48 µM.
`C[C@@H]1O[C@@H](O[C@H]2[C@H](O[C@H]3CC[C@]4(C)[C@H]5CC=C6[C@@H]7CC(C)(C)CC[C@]7(C(=O)NCc7cn(-c8ccccc8Cl)nn7)CC[C@@]6(C)[C@]5(C)CC[C@H]4C3(C)C)OC[C@H](O[C@@H]3O[C@H](CO)[C@@H](O)[C@H](O)[C@H]3O)[C@@H]2O)[C@H](O)[C@H](O)[C@H]1O` gave an IC50 (PC-3) of 5.28 µM, an IC50 (HT-29) of 4.18 µM and an IC50 (HepG2) of 3.92 µM. For the same compound, the IC50 (A549) was 1.81 µM, the IC50 (HL-60) was 2.26 µM and the IC50 (U-937) was 1.03 µM.
